Results published in patent US11504382B2, “Tricyclic inhibitors of Hepatitis B virus” (Antios Therapeutics, Inc., priority 2018, dated 2022).
Like-named read-outs stand apart in the source and are kept apart here.

Test system: HBV
Test: HBV inhibition assay in HepAD38 cells (extracellular HBV DNA by direct qPCR)
Format: cell-based, Hepatitis B virus
Settings: 96 hours; for EC50: 8-point dose-response curve, read-out: HBV inh EC50; for inhibition at 0.1 µM / inhibition at 1 µM / inhibition at 0.05 µM / Anti HBV Activity (conc μM): relative to non-treated reference; for inhibition at 0.1 µM / inhibition at 1 µM / inhibition at 0.05 µM: read-out: Anti HBV Activity (conc μM); for inhibition at 0.1 µM / Anti HBV Activity (conc μM): 0.1 μM

## Cn1cc2c(c1C(=O)Nc1cc(F)c(F)c(F)c1)OCC1CN(C(=O)c3cocn3)CC1NS2(=O)=O (stereo not drawn) [Example E65, cis-7-methyl-2-(oxazole-4-carbonyl)-N-(3,4,5-trifluorophenyl)-2,3,3a,4,10,10a-hexahydro-1H,7H-dipyrrolo[3,4-b:3′,4′-f][1,4,5]oxathiazocine-8-carboxamide 5,5-dioxide]
Hepatitis B virus
  EC50: < 1 µM

## Cn1cc2c(c1C(=O)Nc1cc(F)c(F)c(F)c1)OC[C@@H]1CNC[C@@H]1NS2(=O)=O [Example E36, 7-methyl-N-(3,4,5-trifluorophenyl)-2,3,3a,4,10,10a-hexahydro-1H,7H-dipyrrolo[3,4-b:3′,4′-f][1,4,5]oxathiazocine-8-carboxamide 5,5-dioxide (3aR,10aR)]
Hepatitis B virus
  inhibition at 0.1 µM: < 50%

## Cc1nnc(C(=O)N2CC3NS(=O)(=O)c4cn(C)c(C(=O)Nc5ccc(F)c(C)c5)c4OCC3(C)C2)o1 (single isomer, unassigned) [Example E95, N-(4-fluoro-3-methylphenyl)-7,10a-dimethyl-2-(5-methyl-1,3,4-oxadiazole-2-carbonyl)-2,3,3a,4,10,10a-hexahydro-1H,7H-dipyrrolo[3,4-b:3′,4′-f][1,4,5]oxathiazocine-8-carboxamide 5,5-dioxide (Chiral 3aS,10aS or 3aR,10aR - Stereochemistry unknown)]
  EC50: < 1 µM

## Cc1cc(NC(=O)c2c3c(cn2C)S(=O)(=O)NC2CN(C(=O)c4ncon4)CC2CO3)ccc1F (stereo not drawn) [Example E63, cis-N-(4-fluoro-3-methylphenyl)-7-methyl-2-(1,2,4-oxadiazole-3-carbonyl)-2,3,3a,4,10,10a-hexahydro-1H,7H-dipyrrolo[3,4-b:3′,4′-f][1,4,5]oxathiazocine-8-carboxamide 5,5-dioxide]
Hepatitis B virus
  EC50: < 1 µM

## CCOC(=O)N1C[C@H]2CS(=O)(=O)c3c(cn(C)c3C(=O)Nc3ccc(F)c(C)c3)S(=O)(=O)N[C@H]2C1 [Example E123, Ethyl (3aR,10aR)-8-((4-fluoro-3-methylphenyl)carbamoyl)-7-methyl-3a,4,10,10a-tetrahydro-1H,7H-dipyrrolo[3,4-c:3′,4′-g][1,6,2]dithiazocine-2(3H)-carboxylate 5,5,9,9-tetraoxide]
Hepatitis B virus
  EC50: < 1 µM

## Cn1cc2c(c1C(=O)Nc1ccc(F)c(F)c1)OC[C@H]1C[C@H](C1)NS2(=O)=O [Example E5]
Hepatitis B virus
  inhibition at 1 µM: < 50%

## Cc1cc(NC(=O)c2c3c(cn2C)S(=O)(=O)NC2CN(C(=O)C45CC(CO4)C5)CCC2CO3)ccc1F (racemic) [Example E143, Trans-7-(2-oxabicyclo[2.1.1]hexane-1-carbonyl)-N-(4-fluoro-3-methylphenyl)-2-methyl-5,5a,6,7,8,9,9a,10-octahydro-2H-pyrido[3,4-f]pyrrolo[3,4-b][1,4,5]oxathiazocine-1-carboxamide 4,4-dioxide]
  EC50: < 1 µM

## Cn1cc2c(c1C(=O)Nc1cc(F)c(F)c(F)c1)OCC1CN(c3ncc(F)cn3)CC1NS2(=O)=O (stereo not drawn) [Example E75, cis-2-(5-fluoropyrimidin-2-yl)-7-methyl-N-(3,4,5-trifluorophenyl)-2,3,3a,4,10,10a-hexahydro-1H,7H-dipyrrolo[3,4-b:3′,4′-f][1,4,5]oxathiazocine-8-carboxamide 5,5-dioxide]
Hepatitis B virus
  inhibition at 0.05 µM: > 50%
  EC50: < 1 µM

## CCOC(=O)N1C[C@H]2NS(=O)(=O)c3cn(C)c(C(=O)Nc4cc(F)c(F)c(F)c4)c3OC[C@@]2(C)C1 (relative stereo) [Example E85, cis-ethyl 7,10a-dimethyl-8-((3,4,5-trifluorophenyl)carbamoyl)-3a,4,10,10a-tetrahydro-1H,7H-dipyrrolo[3,4-b:3′,4′-f][1,4,5]oxathiazocine-2(3H)-carboxylate 5,5-dioxide]
Hepatitis B virus
  inhibition at 0.05 µM: > 50%

## CCOC(=O)N1CC2NS(=O)(=O)c3cn(C)c(C(=O)Nc4cc(F)c(F)c(F)c4)c3OCC2(C)C1 (single isomer, unassigned) [Example E91, Ethyl 7,10a-dimethyl-8-((3,4,5-trifluorophenyl)carbamoyl)-3a,4,10,10a-tetrahydro-1H,7H-dipyrrolo[3,4-b:3′,4′-f][1,4,5]oxathiazocine-2(3H)-carboxylate 5,5-dioxide (Chiral 3aS,10aS or 3aR,10aR - Stereochemistry unknown)]
  EC50: < 1 µM

## Cn1cc2c(c1C(=O)Nc1cc(F)c(F)c(F)c1)OC[C@H]1CN(C(=O)c3ncco3)C[C@H]1NS2(=O)=O (relative stereo) [Example E50, cis-7-methyl-2-(oxazole-2-carbonyl)-N-(3,4,5-trifluorophenyl)-2,3,3a,4,10,10a-hexahydro-1H,7H-dipyrrolo[3,4-b:3′,4′-f][1,4,5]oxathiazocine-8-carboxamide 5,5-dioxide]
Hepatitis B virus
  inhibition at 0.05 µM: > 50%
  EC50: < 1 µM

## CC(C)NS(=O)(=O)N1CC2COc3c(cn(C)c3C(=O)Nc3cc(F)c(F)c(F)c3)S(=O)(=O)NC2C1 (racemic) [Example E21, cis-2-(N-isopropylsulfamoyl)-7-methyl-N-(3,4,5-trifluorophenyl)-2,3,3a,4,10,10a-hexahydro-1H,7H-dipyrrolo[3,4-b:3′,4′-f][1,4,5]oxathiazocine-8-carboxamide 5,5-dioxide]
Hepatitis B virus
  inhibition at 0.1 µM: > 50%
  EC50: < 1 µM

## Cc1noc(C(=O)N2C[C@H]3COc4c(cn(C)c4C(=O)Nc4ccc(F)c(C)c4)S(=O)(=O)N[C@H]3C2)n1 [Example E103, (3aR,10aR)—N-(4-fluoro-3-methylphenyl)-7-methyl-2-(3-methyl-1,2,4-oxadiazole-5-carbonyl)-2,3,3a,4,10,10a-hexahydro-1H,7H-dipyrrolo[3,4-b:3′,4′-f][1,4,5]oxathiazocine-8-carboxamide 5,5-dioxide]
Hepatitis B virus
  EC50: < 1 µM

## Cn1cc2c(c1C(=O)Nc1ccc(F)c(F)c1)OC1COCC1NS2(=O)=O (racemic) [Example E4, trans-N-(3,4-difluorophenyl)-7-methyl-1,3a,4,9a-tetrahydro-3H,7H-furo[3,4-f]pyrrolo[3,4-b][1,4,5]oxathiazepine-8-carboxamide 5,5-dioxide]
Hepatitis B virus
  inhibition at 1 µM: > 50%
  EC50: < 1 µM

## Cn1cc2c(c1C(=O)Nc1cc(F)c(F)c(F)c1)OCC1CN(C(=O)OC(C)(C)C)CC1NS2(=O)=O (racemic) [Example E24, Tert-Butyl (3aS,10aS and 3aR,10aR) 7-methyl-8-((3,4,5-trifluorophenyl)carbamoyl)-3a,4,10,10a-tetrahydro-1H,7H-dipyrrolo[3,4-b:3′,4′-f][1,4,5]oxathiazocine-2(3H)-carboxylate 5,5-dioxide]
Hepatitis B virus
  inhibition at 0.1 µM: > 50%

## CCOC(=O)N1C[C@H]2COc3c(cn(C)c3C(=O)Nc3ccc(F)c(C)c3)S(=O)(=O)N[C@H]2C1 (single isomer, unassigned) [Example E39]
Hepatitis B virus
  inhibition at 0.05 µM: > 50%
  EC50: < 1 µM

## Cc1cc(NC(=O)c2c3c(cn2C)S(=O)(=O)NC2CN(C(=O)C4(C)COC4)CC2(C)CO3)ccc1F (stereo not drawn) [Example E89, cis-N-(4-fluoro-3-methylphenyl)-7,10a-dimethyl-2-(3-methyloxetane-3-carbonyl)-2,3,3a,4,10,10a-hexahydro-1H,7H-dipyrrolo[3,4-b:3′,4′-f][1,4,5]oxathiazocine-8-carboxamide 5,5-dioxide]
Hepatitis B virus
  EC50: < 1 µM

## Cc1cc(NC(=O)c2c3c(cn2C)S(=O)(=O)NC2CN(C(=O)C45CC(CO4)C5)CC2CO3)ccc1F (stereo not drawn) [Example E150, Trans-2-(2-oxabicyclo[2.1.1]hexane-1-carbonyl)-N-(4-fluoro-3-methylphenyl)-7-methyl-2,3,3a,4,10,10a-hexahydro-1H,7H-dipyrrolo[3,4-b:3′,4′-f][1,4,5]oxathiazocine-8-carboxamide 5,5-dioxide]
Hepatitis B virus
  EC50: < 1 µM

## CCOC(=O)N1CC2COc3c(cn(C)c3C(=O)Nc3ccc(F)c(C(F)F)c3)S(=O)(=O)NC2C1 (racemic) [Example E16, Cis-Ethyl 8-((3-(difluoromethyl)-4-fluorophenyl)carbamoyl)-7-methyl-3a,4,10,10a-tetrahydro-1H,7H-dipyrrolo[3,4-b:3′,4′-f][1,4,5]oxathiazocine-2(3H)-carboxylate 5,5-dioxide]
Hepatitis B virus
  inhibition at 0.1 µM: > 50%
  EC50: < 1 µM

## Cn1cc2c(c1C(=O)Nc1ccc(F)c(F)c1)OCC1CCCC1NS2(=O)=O (single isomer, unassigned) [Example E35, N-(3,4-difluorophenyl)-2-methyl-5a,6,7,8,8a,9-hexahydro-2H,5H-cyclopenta[f]pyrrolo[3,4-b][1,4,5]oxathiazocine-1-carboxamide 4,4-dioxide (Chiral 5aS,8aR or 5aR,8aS - Stereochemistry unknown)]
  Anti HBV Activity (conc μM): A (0.1) (HBV inhibition greater than 50% at the concentration indicated in the table)
  EC50: < 1 µM

## Cn1cc2c(c1C(=O)Nc1ccc(F)c(F)c1)OCC1CCCC1NS2(=O)=O (single isomer, unassigned) [Example E34, N-(3,4-difluorophenyl)-2-methyl-5a,6,7,8,8a,9-hexahydro-2H,5H-cyclopenta[f]pyrrolo[3,4-b][1,4,5]oxathiazocine-1-carboxamide 4,4-dioxide (Chiral 5aS,8aR or 5aR,8aS - Stereochemistry unknown)]
  Anti HBV Activity (conc μM): B (0.1) (HBV inhibition less than 50% at the concentration indicated in the table)

## Cn1cc2c(c1C(=O)Nc1ccc(F)c(F)c1)OCC1CCN1S2(=O)=O (centres unmarked) [Example E3, N-(3,4-difluorophenyl)-2-methyl-6,7,7a,8-tetrahydro-2H-azeto[1,2-e]pyrrolo[3,4-b][1,4,5]oxathiazepine-1-carboxamide 4,4-dioxide]
Hepatitis B virus
  inhibition at 1 µM: > 50%
  EC50: < 1 µM

## Cn1cc2c(c1C(=O)Nc1cc(F)c(F)c(F)c1)OCC1CN(C(=O)c3nccs3)CC1NS2(=O)=O (stereo not drawn) [Example E58, cis-7-methyl-2-(thiazole-2-carbonyl)-N-(3,4,5-trifluorophenyl)-2,3,3a,4,10,10a-hexahydro-1H,7H-dipyrrolo[3,4-b:3′,4′-f][1,4,5]oxathiazocine-8-carboxamide 5,5-dioxide]
Hepatitis B virus
  inhibition at 0.05 µM: > 50%
  EC50: < 1 µM
